From publication PMC5987058, “Therapeutic Potential of a Scorpion Venom-Derived Antimicrobial Peptide and Its Homologs Against Antibiotic-Resistant Gram-Positive Bacteria” (Frontiers in Microbiology, 2018)
≈ marks a conversion by molar mass, not a printed value. Like-named read-outs stand apart in the source and are kept apart here. Ends that are not written are not given here.

Legend:
[1] = tested on: Staphylococcus epidermidis AB208188; test: MIC, broth microdilution; format: cell-based; conditions: LB medium, 10^5–10^6 CFU/mL, 16–18 h at 37°C, triplicate
Experimental: (§1) The antimicrobial activity was determined via a broth microdilution assay according to the procedure recommended by the Clinical and Laboratory Standards Institute with some modifications ([Hou et al., 2011]; [Li et al., 2016]). Bacteria were cultured in Luria-Bertani (LB) broth to OD600 = 0.6 at 37°C, then diluted to 10^5–10^6 CFU/mL in LB medium. Peptides were serially double diluted to a gradient concentration range from 48.3 to 1.5 μM in physiological saline. Eighty microliters of the bacterial suspension and 20 μL of diluted peptide at varying concentrations were added to 96-well plates, and then incubated for 16–18 h at 37°C with continuous shaking at 250 rpm. The antimicrobial activity of ampicillin and kanamycin were also tested as positive controls. Experiments were performed in triplicate. The minimum inhibitory concentration (MIC) was determined as the lowest peptide concentration at which no bacterial growth was observed.

[2] = tested on: Bacillus subtilis AB91021; test: MIC, broth microdilution; format: cell-based; conditions: LB medium, 10^5–10^6 CFU/mL, 16–18 h at 37°C, triplicate
Experimental: as §1

[3] = tested on: Escherichia coli AB94012; test: MIC, broth microdilution; format: cell-based; conditions: LB medium, 10^5–10^6 CFU/mL, 16–18 h at 37°C, triplicate
Experimental: as §1

[4] = tested on: Escherichia coli ATCC25922; test: MIC, broth microdilution; format: cell-based; conditions: LB medium, 10^5–10^6 CFU/mL, 16–18 h at 37°C, triplicate
Experimental: as §1

[5] = tested on: Staphylococcus aureus ATCC25923; test: MIC, broth microdilution; format: cell-based; conditions: LB medium, 10^5–10^6 CFU/mL, 16–18 h at 37°C, triplicate
Experimental: as §1

[6] = tested on: Pseudomonas aeruginosa ATCC9027; test: MIC, broth microdilution; format: cell-based; conditions: LB medium, 10^5–10^6 CFU/mL, 16–18 h at 37°C, triplicate
Experimental: as §1

[7] = tested on: Micrococcus luteus AB93113; test: MIC, broth microdilution; format: cell-based; conditions: LB medium, 10^5–10^6 CFU/mL, 16–18 h at 37°C, triplicate
Experimental: as §1

[8] = tested on: Staphylococcus aureus ATCC6538; test: MIC, broth microdilution; format: cell-based; conditions: LB medium, 10^5–10^6 CFU/mL, 16–18 h at 37°C, triplicate
Experimental: as §1

[9] = tested on: Staphylococcus epidermidis AB208187; test: MIC, broth microdilution; format: cell-based; conditions: LB medium, 10^5–10^6 CFU/mL, 16–18 h at 37°C, triplicate
Experimental: as §1

[10] = tested on: Staphylococcus aureus AB208193; test: MIC, broth microdilution; format: cell-based; conditions: LB medium, 10^5–10^6 CFU/mL, 16–18 h at 37°C, triplicate
Experimental: as §1

[11] = tested on: Bacillus thuringiensis AB92037; test: MIC, broth microdilution; format: cell-based; conditions: LB medium, 10^5–10^6 CFU/mL, 16–18 h at 37°C, triplicate
Experimental: as §1

[12] = tested on: PRSA P1389; test: MIC, broth microdilution; format: cell-based, Staphylococcus aureus; conditions: penicillin-resistant clinical isolate, LB medium, 10^5–10^6 CFU/mL, 16–18 h at 37°C, triplicate
Experimental: as §1

[13] = tested on: MRSA P1374; test: MIC, broth microdilution; format: cell-based, Staphylococcus aureus; conditions: methicillin-resistant clinical isolate, LB medium, 10^5–10^6 CFU/mL, 16–18 h at 37°C, triplicate
Experimental: as §1

[14] = tested on: MRSA P1381; test: MIC, broth microdilution; format: cell-based, Staphylococcus aureus; conditions: methicillin-resistant clinical isolate, LB medium, 10^5–10^6 CFU/mL, 16–18 h at 37°C, triplicate
Experimental: as §1

[15] = tested on: S. aureus AB94004; test: Competition assay with LPS or LTA (MIC); format: cell-based, Staphylococcus aureus; conditions: 30 min, n = 3; for MIC, peptide treated with LPS 1: 1 mg/mL peptide + equal volume 5 mg/mL LPS from E. coli; for MIC, peptide treated with LTA: 1 mg/mL peptide + equal volume 5 mg/mL LTA from S. aureus; for MIC, peptide treated with LPS 1+LTA: peptide incubated with LPS 1 and LTA
Experimental: 1 mg/mL of peptides were incubated with an equal volume of 5 mg/mL of the lipopolysaccharide (LPS, Sigma-Aldrich: L3012/L8643) or lipoteichoic acid (LTA, Sigma-Aldrich: L2515) for 30 min. The MICs of peptides treated with LPS or LTA against S. aureus AB94004 were subsequently measured.

[16] = tested on: MRSA P1386; conditions: methicillin-resistant clinical isolate; comparison values; ref Zeng et al., 2004, 2012; Cao et al., 2012a; cited from earlier work
Excerpt: (§2) Table 1 In Vitro antimicrobial activities of marcin-18 and its homologs compared with other peptides and antibiotics. | column: MIC (μM) / BmKn2; MIC (μM) / Van

[17] = tested on: PRSA P1389; conditions: penicillin-resistant clinical isolate; comparison values; ref Zeng et al., 2004, 2012; Cao et al., 2012a; cited from earlier work
Excerpt: as §2

[18] = tested on: MRSA P1369; conditions: methicillin-resistant clinical isolate; comparison values; ref Zeng et al., 2004, 2012; Cao et al., 2012a; cited from earlier work
Excerpt: as §2

[19] = tested on: MRSA P1374; conditions: methicillin-resistant clinical isolate; comparison values; ref Zeng et al., 2004, 2012; Cao et al., 2012a; cited from earlier work
Excerpt: as §2

[20] = tested on: PRSA P1383; conditions: penicillin-resistant clinical isolate; comparison values; ref Zeng et al., 2004, 2012; Cao et al., 2012a; cited from earlier work
Excerpt: as §2

[21] = tested on: MRSA P1381; conditions: methicillin-resistant clinical isolate; comparison values; ref Zeng et al., 2004, 2012; Cao et al., 2012a; cited from earlier work
Excerpt: as §2

[22] = tested on: MRSA P1381; test: Mouse peritonitis model; format: in vivo, BALB/c mice; conditions: n = 6
Experimental: Six to eight-week-old male BALB/c mice (18–21 g) were purchased from the Animal Center for Disease Control and Prevention (Hubei, China) and maintained under specific pathogen-free conditions at 25 ± 2°C and 50 ± 5% humidity, on a 12 h/12 h light/dark cycle.
All methods were performed in accordance with the relevant guidelines ([Dai et al., 2008]; [Peng et al., 2017]). The mice were intraperitoneally (i.p.) injected with 0.5 mL/mouse (5.85 × 10^7 CFU) of the exponential phase MRSA P1381 inoculum in physiological saline containing 5% (wt/v) mucin. At 1 h after the bacterial infection, the mice were i.p. injected with 0.4 mL/mouse of physiological saline (I) (to serve as a negative control), marcin-18 peptide (10 mg/kg) (II), marcin-18 peptide (25 mg/kg) (III), meucin-18 peptide (25 mg/kg) (IV), megicin-18 peptide (25 mg/kg) (V), and vancomycin (25 mg/kg) (VI). The vancomycin dose was set based on previous studies ([Cavanagh et al., 2013]; [Wang et al., 2018]). Each group included 6 mice. After another 24 h post administration, subject peritonea were lavaged with 1 mL of physiological saline and lavage fluids were then collected. Ascites were diluted and plated on LB agar so that the number of bacterial colonies could be counted. The ability of the three peptides to rescue mice from lethal bacteremia was observed 2–4 times daily and survival was tracked for 7 days.

Row | Compound | MIC [1] [µM] | MIC [2] [µM] | MIC [3] [µM] | MIC [4] [µM] | MIC [5] [µM] | MIC [6] [µM] | MIC [7] [µM] | MIC [8] [µM] | MIC [9] [µM] | MIC [10] [µM] | MIC [11] [µM] | MIC [12] [µM] | MIC [13] [µM] | MIC [14] [µM] | MIC, peptide treated with LPS 1 [15] [µM] | MIC, peptide treated with LTA [15] [µM] | MIC, peptide treated with LPS 1+LTA [15] [µM] | further results
1 | FFGHLFKLATKIIPSLFQ-NH2 [Meucin-18] | 1.5 | 3.0 | 23.7 | 11.9 | 3.0 | 11.9 | 47.5 | 1.5 | 3.0 | 3.0 | 3.0 | 3.0 | 3.0 | 1.5 | – | – | – | –
2 | FFGALFKLATKIIPSLFR-NH2 [Megicin-18] | 1.5 | 3.0 | >48.3 | 12.1 | 3.0 | 12.1 | >48.3 | 1.5 | 1.5 | 3.0 | 1.5 | 1.5 | 3.0 | 3.0 | 3 | 3 | 3 | –
3 | CN[C@H](CC(C)C)C(=O)N[C@H]1C(=O)N[C@@H](CC(N)=O)C(=O)N[C@H]2C(=O)N[C@H]3C(=O)N[C@H](C(=O)N[C@H](C(=O)O)c4cc(O)cc(O)c4-c4cc3ccc4O)[C@H](O)c3ccc(c(Cl)c3)Oc3cc2cc(c3O[C@@H]2O[C@H](CO)[C@@H](O)[C@H](O)[C@H]2O[C@H]2C[C@](C)(N)[C@H](O)[C@H](C)O2)Oc2ccc(cc2Cl)[C@H]1O [Van, vancomycin] | – | – | – | – | – | – | – | – | – | – | – | – | – | – | – | – | – | MIC [16]: 2.1 µM (≈ 3.04 µg/mL); MIC [17]: 4.2 µM (≈ 6.09 µg/mL); MIC [18]: 4.2 µM (≈ 6.09 µg/mL); MIC [19]: 4.2 µM (≈ 6.09 µg/mL); MIC [20]: 4.2 µM (≈ 6.09 µg/mL); MIC [21]: 2.1 µM (≈ 3.04 µg/mL); survival of infected mice ([22]; 25 mg/kg i.p. single dose 1 h after i.p. 5.85 × 10^7 CFU MRSA P1381, 7 days): 100%; bacteria in ascites of antibiotic-treated group ([22]; 25 mg/kg i.p., peritoneal lavage 24 h after administration): few detectable bacteria
4 | FFGHLFKLATKIIPSLFR-NH2 [Marcin-18] | 2.9 | 2.9 | 11.7 | 5.9 | 2.9 | 5.9 | 23.4 | 1.5 | 2.9 | 2.9 | 2.9 | 2.9 | 2.9 | 1.5 | 2.9 | 2.9 | 2.9 | MIC, peptide treated with LPS 2 ([15]; 1 mg/mL peptide + equal volume 5 mg/mL LPS from P. aeruginosa): 2.9 µM
